The subject of data set [1] is ENT2. Description: Western blotting of ENT2 protein expression. The format is cell-based, human. The following applies: 50 µM, 24 h or 48 h. As to the method:
(§1) PK15NTD/ENT1 and PK15NTD/ENT2 cells were grown to confluence in 10-cm culture dishes and treated with 50 µM of compound 3c or an equivalent volume of a vehicle (0.5% DMSO) for 24 h or 48 h. The cells were washed thrice with ice-cold PBS. Total protein was extracted by cell lysis in a lysis buffer (5 mM sodium monophosphate, pH 8) with a protease inhibitor cocktail (Sigma, St Louis, MO, United States; 1:1,000 [v/v]). The protein content was measured by bicinchoninic acid assay. Protein samples were separated by 12.5% sodium dodecyl sulfate–polyacrylamide gel electrophoresis (SDS-PAGE) and blotted onto polyvinylidene difluoride (PVDF) membranes. […] The membranes were then again washed, and the bound secondary antibodies were detected using an enhanced chemiluminescence kit (Bio-Rad, Hercules, CA, United States). […] To semi-quantify the ENT1 and ENT2 protein levels, the same membranes were washed three times with a stripping buffer for 10 min at room temperature, and the protein expression level of β-actin was measured using monoclonal mouse anti-β-actin primary antibodies (1:3,000 [v/v] dilution in a blocking solution). […]
(§2) FIGURE 5 Effects of compound 3c on cytotoxicity and protein expressions of ENT1 and ENT2. […] Total ENT1 and ENT2 from whole-cell lysates were also detected for a comparison. β-actin served as an internal reference. […]

Data set [2] concerns the target T1, ENT2 (Homo sapiens, UniProt Q14542).
T1 construct: expressed in transfected cells
T1 sequence (Q14542 1-456): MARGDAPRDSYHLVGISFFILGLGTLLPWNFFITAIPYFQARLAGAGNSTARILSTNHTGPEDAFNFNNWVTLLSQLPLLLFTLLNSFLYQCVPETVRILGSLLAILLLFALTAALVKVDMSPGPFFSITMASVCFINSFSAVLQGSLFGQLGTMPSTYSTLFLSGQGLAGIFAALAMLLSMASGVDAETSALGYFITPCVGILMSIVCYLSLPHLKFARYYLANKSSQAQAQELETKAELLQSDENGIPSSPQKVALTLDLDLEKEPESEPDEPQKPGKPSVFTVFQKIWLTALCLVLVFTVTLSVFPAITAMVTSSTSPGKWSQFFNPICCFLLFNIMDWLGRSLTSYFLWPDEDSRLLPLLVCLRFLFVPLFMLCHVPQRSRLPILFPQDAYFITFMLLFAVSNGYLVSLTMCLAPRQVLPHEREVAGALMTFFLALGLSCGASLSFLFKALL
Nature of the data set: Wash-out reversibility of [3H]uridine uptake inhibition in PK15NTD/ENT2 cells. The data set is classed as cell-based. The following applies: 50 µM, incubation 1–60 min, washed five times. How it is done:
To determine whether the inhibitory effects of compound 3c were reversible or irreversible, PK15NTD/ENT1 and PK15NTD/ENT2 cells were incubated with 50 µM of compound 3c for different time periods (1–60 min). The cells were then washed five times with buffer. After wash-out for every single time [^3H]uridine uptake was measured. […] The longer the incubation time with compound 3c, the more difficult it was to wash-out the inhibitory effects of compound 3c.
FIGURE 6 Reversibility of the inhibitory effects of compound 3c on ENT1 and ENT2 (A) PK15NTD/ENT1 and (B) PK15NTD/ENT2 cells were incubated with 50 μM of compound 3c or a vehicle (0.5% DMSO, as a control) for different time (0–60 min) The cells were then washed five times. After wash-out for every single time [^3H]uridine uptake (1 μM, 2 μCi/ml) was measured. Data are presented as mean ± SE of three experiments. ^* p < 0.05 compared with the fifth wash.

The subject of another data set is PK15NTD/ENT2 cells. Description: Cell membrane integrity, LDH release. The data set is classed as cell-based, porcine. The following applies: 50 µM, 24 or 48 h. How it is done: (§3) PK15NTD/ENT1 and PK15NTD/ENT2 cells were seeded onto 96-well plates until they reached 80–90% confluent. The cells were then treated with different concentrations of compound 3c or an equivalent volume of a vehicle (0.5% dimethyl sulfoxide (DMSO), as a control) in a serum-free medium for another 24 or 48 h. For measuring cell membrane integrity, the lactate dehydrogenase (LDH) released into the culture medium was measured with a detection kit (Abcam, Cambridge, UK) according to the manufacturer’s instructions. The absorbance at 490 nm was measured with a microplate absorbance reader. For measuring cell viability, 0.5 mg/ml methylthiazolyldiphenyl-tetrazolium bromide (MTT) was added to each well. […] The absorbance was measured at 560 nm, with the absorbance at 655 nm serving as the background.
(§4) FIGURE 5 Effects of compound 3c on cytotoxicity and protein expressions of ENT1 and ENT2. Cytotoxicity of compound 3c was measured after 24 h or 48 h treatment of PK15NTD/ENT1 and PK15NTD/ENT2 cells with various concentrations of compound 3c (0.5, 5 and 50 μM) or a vehicle (0.5% DMSO, as a control) (A) The cell viability and (B) cell membrane integrity were determined by the MTT assay and LDH release, respectively (C) PK15NTD/ENT1 and (D) PK15NTD/ENT2 cells were incubated with 50 μM of compound 3c or a vehicle (0.5% DMSO, as a control) for 24 or 48 h. […]

The test system of a further data set is PK15NTD/ENT1 cells. Nature of the data set: Cell membrane integrity, LDH release. The data set is classed as cell-based, porcine. The following applies: 50 µM, 24 or 48 h. How it is done: as §3, §4
Another data set concerns ENT1. Nature of the data set: Western blotting of ENT1 protein expression. The format is cell-based, human. The following applies: 50 µM, 24 h or 48 h. As to the method:
as §1, §2

Each structure is given as a SMILES string.

`Cc1cccc(Nc2nc(N)nc(CN3CCN(c4ccc(F)cc4)CC3)n2)c1` [Compound 3c]: the “protein expression level of ENT2” value in the data set with ENT2 [1] was “unaltered”. The “reversibility of inhibitory effect on ENT2 by washing” value on ENT2 [2] is reported as “only partially reversed by washing”. Besides, the cell membrane integrity result in the data set on PK15NTD/ENT2 cells and in the data set with PK15NTD/ENT1 cells was “No significant changes” throughout. The “protein expression level of ENT1” value in the data set with ENT1 is recorded as “unaltered”.
